US20260191933A1, “PHARMACEUTICAL COMBINATIONS AND USES THEREOF” (The University of Melbourne, priority 2022, published 2026)

Assays:
[1] = system: mixed CSPGs (aggrecan, neurocan, phosphacan and versican); assay: CSPG-ECM binding assay, mixed CSPGs
Procedure: (§1) To determine the interaction of insulin with CSPG-ECM components in vitro, flat-bottom 96-well plates were first coated with 10 μg/ml poly-L-lysine overnight, followed by a rinsing with water. A purified CSPGs mix containing neurocan, phosphacan, versican and aggrecan (CC117, Merck Millipore, MA), purified aggrecan (A1960, Merck Millipore, MA) or purified chondroitin 4-sulfate (59004, Selleck Chemicals, TX), were coated onto the 96-well plates at a concentration of 10 μg/ml for 4 h at RT, followed by a rinse with water. Insulin-FITC was incubated on plates containing ECM at concentrating ranging from 5 ng/ml-1 mg/ml for 2 h at RT and protected from light. Control wells contained either no ECM, bovine serum albumin (10 μg/ml) or poly-L-lysine alone. Wells were washed 3 times with water and imaged at 495 nm using a SPECTROstar Nano Microplate Reader (BMG Labtech, Germany). To digest CSPG-ECM or to negate CSPG-ECM negative charge. wells were incubated with either chABC (0.5 U/ml) or poly-1-arginine (10 μg/ml, P7762, Merck Millipore, MA) for 1 h at 37° C. after the ECM coating, washed 3 times with water and then incubated with insulin-FITC.

aggrecan = target: T1, aggrecan (Bos taurus, UniProt P13608); assay: CSPG-ECM binding assay, aggrecan; details: plates coated with aggrecan, 2-hours
T1 construct: purchased Merck Millipore A1960
Procedure: as §1

chondroitin 4-sulfate = assay: CSPG-ECM binding assay, chondroitin 4-sulfate; details: plates coated with chondroitin 4-sulfate (C4S), 2-hours
Procedure: as §1

T1 sequence (P13608 17-2364): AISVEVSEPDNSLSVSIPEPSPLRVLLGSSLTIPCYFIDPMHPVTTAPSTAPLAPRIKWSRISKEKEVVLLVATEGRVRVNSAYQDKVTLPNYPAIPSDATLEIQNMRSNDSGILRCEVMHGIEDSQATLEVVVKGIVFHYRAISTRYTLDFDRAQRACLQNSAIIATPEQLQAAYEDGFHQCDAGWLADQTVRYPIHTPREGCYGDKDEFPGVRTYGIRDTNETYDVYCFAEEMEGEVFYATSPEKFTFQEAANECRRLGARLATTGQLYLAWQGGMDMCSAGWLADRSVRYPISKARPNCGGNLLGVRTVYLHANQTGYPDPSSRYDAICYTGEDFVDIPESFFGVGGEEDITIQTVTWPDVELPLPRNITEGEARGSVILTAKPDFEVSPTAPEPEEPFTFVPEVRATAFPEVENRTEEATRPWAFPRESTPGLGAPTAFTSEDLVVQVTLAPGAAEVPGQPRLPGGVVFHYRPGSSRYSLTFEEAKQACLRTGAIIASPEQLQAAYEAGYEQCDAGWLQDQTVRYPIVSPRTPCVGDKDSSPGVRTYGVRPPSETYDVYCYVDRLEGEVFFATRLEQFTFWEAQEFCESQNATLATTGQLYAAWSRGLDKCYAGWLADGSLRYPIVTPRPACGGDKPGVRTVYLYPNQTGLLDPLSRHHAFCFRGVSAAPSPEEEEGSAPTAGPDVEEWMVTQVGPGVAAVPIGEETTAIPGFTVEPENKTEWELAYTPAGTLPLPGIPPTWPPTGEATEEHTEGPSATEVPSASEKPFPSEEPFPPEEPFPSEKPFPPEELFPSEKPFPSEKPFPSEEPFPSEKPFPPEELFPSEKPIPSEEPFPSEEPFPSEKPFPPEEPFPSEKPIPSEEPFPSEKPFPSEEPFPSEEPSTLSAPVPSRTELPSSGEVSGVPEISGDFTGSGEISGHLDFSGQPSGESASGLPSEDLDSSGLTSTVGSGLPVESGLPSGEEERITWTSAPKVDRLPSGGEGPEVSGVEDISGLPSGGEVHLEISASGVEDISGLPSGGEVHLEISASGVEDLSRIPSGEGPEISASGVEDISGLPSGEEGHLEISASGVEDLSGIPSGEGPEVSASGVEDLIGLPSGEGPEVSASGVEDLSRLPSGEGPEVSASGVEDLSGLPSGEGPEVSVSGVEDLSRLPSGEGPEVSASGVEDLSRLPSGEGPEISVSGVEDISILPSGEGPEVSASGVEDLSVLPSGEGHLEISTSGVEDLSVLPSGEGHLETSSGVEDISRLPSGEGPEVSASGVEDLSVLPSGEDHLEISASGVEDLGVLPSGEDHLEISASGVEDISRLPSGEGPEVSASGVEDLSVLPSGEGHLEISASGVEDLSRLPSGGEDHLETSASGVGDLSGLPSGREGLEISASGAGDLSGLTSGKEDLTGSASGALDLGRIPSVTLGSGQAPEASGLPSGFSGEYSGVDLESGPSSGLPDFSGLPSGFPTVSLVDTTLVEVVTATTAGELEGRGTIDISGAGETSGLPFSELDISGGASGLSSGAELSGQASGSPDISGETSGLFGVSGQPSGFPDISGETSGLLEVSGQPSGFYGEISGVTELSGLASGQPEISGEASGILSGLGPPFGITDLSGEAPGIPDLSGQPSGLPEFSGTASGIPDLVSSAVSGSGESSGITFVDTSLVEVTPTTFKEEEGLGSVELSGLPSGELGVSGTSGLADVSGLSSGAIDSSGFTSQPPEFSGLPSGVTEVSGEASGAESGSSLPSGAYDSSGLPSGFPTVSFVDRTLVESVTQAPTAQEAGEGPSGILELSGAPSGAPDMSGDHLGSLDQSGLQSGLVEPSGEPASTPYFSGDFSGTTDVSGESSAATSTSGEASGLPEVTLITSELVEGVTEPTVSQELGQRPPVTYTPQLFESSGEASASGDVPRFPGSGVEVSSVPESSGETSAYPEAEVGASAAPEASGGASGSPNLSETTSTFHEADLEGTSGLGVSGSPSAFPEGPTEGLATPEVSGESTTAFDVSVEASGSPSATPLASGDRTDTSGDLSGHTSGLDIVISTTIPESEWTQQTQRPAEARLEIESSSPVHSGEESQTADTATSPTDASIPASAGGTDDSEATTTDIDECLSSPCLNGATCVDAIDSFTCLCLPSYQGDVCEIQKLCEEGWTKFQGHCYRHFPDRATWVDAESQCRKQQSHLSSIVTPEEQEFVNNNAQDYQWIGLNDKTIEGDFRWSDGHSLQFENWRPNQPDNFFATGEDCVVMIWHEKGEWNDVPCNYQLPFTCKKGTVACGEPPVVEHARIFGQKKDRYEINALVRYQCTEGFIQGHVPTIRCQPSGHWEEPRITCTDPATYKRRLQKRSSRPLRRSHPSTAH

Substance	insulin-ECM interactions ([1]; CSPG mix, in the presence of poly-arginine)	binding of insulin-FITC ([1]; plates coated with mixed CSPGs, 2-hours)	binding of insulin-FITC (aggrecan)	binding of insulin-FITC (chondroitin 4-sulfate)
poly-arginine	significantly reduced			
insulin-FITC: fluorescein isothiocyanate tagged insulin		specific dose-dependent binding	specific dose-dependent binding	specific dose-dependent binding
